# Like-named read-outs stand apart in the source and are kept apart here.
# How the values were obtained:
# [1] = biological target: human M3 receptor (Homo sapiens, UniProt P20309); experiment: In vitro functional assay of muscarinic acetylcholine receptor activity (aequorin calcium flux, reversal of acetylcholine EC50 response); format: cell-based
# Description: (§1) Primary compound plates were prepared in 100% DMSO in opaque 96-well plates (VWR) and serially diluted in half log increments. Secondary compound plates were prepared at 3× concentration in assay buffer. The compound (6-(3-(4,4-difluoro-4-(2-methoxypyridin-4-yl)butanoyl)-3,8-diazabicyclo[3.2.1]octan-8-yl)nicotinonitrile) was added to white, clear bottom tissue culture treated 96-well plates (Fisher Scientific). Coelenterazine-loaded cells were then added at 5×10^5 cells/well.
# (§2) The compound and cells were incubated at room temperature for 30 min in the dark. Acetylcholine at the EC50 concentration was added and calcium flux measured using a FlexStation 3 (Molecular Devices). Sigmoidal dose-response curves were generated by measuring […] over 40 sec and calculating the area under the curve. Dose response curves and IC50 values were generated using Prism (GraphPad). The compound was tested at a final concentration range of 100 μM to 10 μM in 0.10% DMSO.
# (§3) CHO-K1 cells stably expressing human M2, M3 and M4 receptors, respectively, with aequorin (Perkin Elmer) were used to assess a test compound's ability to dose-dependently reverse the EC50 acetylcholine response. The IC50 of the compound was calculated from the dose response curve.
# [2] = biological target: T1, human M2 receptor (Homo sapiens, UniProt P08172); experiment: as above; format: cell-based; settings: CHO-K1 cells expressing human M2 receptor with aequorin; acetylcholine at EC50
# T1 sequence (P08172 1-466): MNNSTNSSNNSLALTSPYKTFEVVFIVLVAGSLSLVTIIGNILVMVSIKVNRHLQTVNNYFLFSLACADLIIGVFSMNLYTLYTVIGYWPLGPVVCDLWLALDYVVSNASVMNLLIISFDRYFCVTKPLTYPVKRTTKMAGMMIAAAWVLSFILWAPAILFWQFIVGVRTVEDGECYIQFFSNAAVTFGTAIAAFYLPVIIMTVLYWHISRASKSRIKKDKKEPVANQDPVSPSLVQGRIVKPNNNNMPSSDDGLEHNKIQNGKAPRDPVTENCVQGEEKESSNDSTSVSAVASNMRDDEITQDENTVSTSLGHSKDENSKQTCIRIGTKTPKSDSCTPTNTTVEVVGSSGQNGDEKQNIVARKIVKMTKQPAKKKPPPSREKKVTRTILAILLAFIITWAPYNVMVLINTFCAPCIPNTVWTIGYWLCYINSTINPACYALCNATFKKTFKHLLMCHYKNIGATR
# Description: as §1, §2, §3
# [3] = biological target: T2, human M4 receptor (Homo sapiens, UniProt P08173); experiment: as above; format: cell-based
# T2 sequence (P08173 1-479): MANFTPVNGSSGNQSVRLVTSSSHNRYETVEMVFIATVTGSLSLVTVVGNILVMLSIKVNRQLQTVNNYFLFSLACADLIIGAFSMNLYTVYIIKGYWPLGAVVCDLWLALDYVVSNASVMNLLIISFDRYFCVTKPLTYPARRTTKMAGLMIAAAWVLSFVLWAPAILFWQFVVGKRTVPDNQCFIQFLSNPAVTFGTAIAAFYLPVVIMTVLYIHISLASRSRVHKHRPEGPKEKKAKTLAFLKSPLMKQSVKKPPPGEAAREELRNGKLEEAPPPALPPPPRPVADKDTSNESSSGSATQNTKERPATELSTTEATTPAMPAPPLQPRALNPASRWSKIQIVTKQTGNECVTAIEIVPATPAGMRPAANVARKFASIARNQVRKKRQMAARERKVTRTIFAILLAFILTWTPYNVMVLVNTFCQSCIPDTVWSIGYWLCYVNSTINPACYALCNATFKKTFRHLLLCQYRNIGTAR
# Description: as §1, §2, §3
# [4] = Physicochemical stability evaluation; settings: for Form change: XRPD
# Description: In these experiments, about 10 mg of Freebase Type A was stored at 25° C./60% RH, 40° C./75% RH for one week and 60° C./sealed for 24 hrs. After storage, the solids were tested by XRPD and HPLC.
# [5] = biological target: T3, human M1 receptor (Homo sapiens, UniProt P11229); experiment: In vitro functional assay of muscarinic acetylcholine receptor activity (aequorin calcium flux, reversal of acetylcholine EC50 response); format: cell-based
# T3 sequence (P11229 1-460): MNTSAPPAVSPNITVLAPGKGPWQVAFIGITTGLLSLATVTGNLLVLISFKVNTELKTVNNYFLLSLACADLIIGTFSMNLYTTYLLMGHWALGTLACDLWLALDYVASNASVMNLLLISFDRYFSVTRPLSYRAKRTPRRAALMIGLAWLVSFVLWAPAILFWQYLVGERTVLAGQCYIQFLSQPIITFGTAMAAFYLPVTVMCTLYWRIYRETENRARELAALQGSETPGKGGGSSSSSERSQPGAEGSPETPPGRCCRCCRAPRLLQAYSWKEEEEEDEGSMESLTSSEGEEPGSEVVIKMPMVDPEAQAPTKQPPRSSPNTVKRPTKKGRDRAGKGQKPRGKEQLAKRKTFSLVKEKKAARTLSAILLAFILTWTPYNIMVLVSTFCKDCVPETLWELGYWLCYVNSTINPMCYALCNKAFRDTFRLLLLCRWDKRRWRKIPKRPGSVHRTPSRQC
# Description: CHO-K1 cells stably expressing human M1 receptor with aequorin (Perkin Elmer) were grown in F12 media (Gibco) containing 10% FBS (ATCC), 0.4 mg/mL geneticin (Sigma-Aldrich) and 0.25 mg/mL Zeocin (Invitrogen). Cells were grown as per the manufacturer's protocol. For compound testing, cells were grown to confluency and detached gently with Accutase (Sigma-Aldrich) followed by centrifugation for 5 min at 150×g. Cells were then re-suspended in assay buffer (i.e. DMEM/F-12 HEPES without phenol red (Invitrogen) with 0.1% BSA (Sigma-Aldrich)) at a density of 5×10^6 cells/ml. Under sterile conditions, 5 μM coelenterazine (Invitrogen) was added to the cells, mixed, then incubated at room temperature protected from light, with gentle agitation, for 4 h.
# Primary compound plates were prepared in 100% DMSO in opaque 96-well plates (VWR) and serially diluted in half log increments. Secondary compound plates were prepared at 3× concentration in assay buffer. […]
# as §2, with “Dose response curves and IC50 values were generated using Prism (GraphPad). The compound was tested at a final concentration range of 100 μM to 10 μM in 0.10% DMSO.” left out
# [6] = Kinetic solubility evaluation; format: physicochemical; settings: for solubility / solubility at 1 h / solubility at 4 h / solubility at 24 h: thermodynamic from solid; for FC (Form change): residual solid by XRPD; for solubility at 1 h / solubility at 4 h / solubility at 24 h: read-out: S (Solubility of freebase)
# Description: In these experiments, about 20 mg of Freebase Type A was suspended in 4 mL of FaSSIF, FeSSIF, SGF and H2O, respectively. After rolling at 37° C. for 1 hr, 4 hrs and 24 hrs, the suspension was centrifuged and filtered through a 0.45 μm PTFE membrane. The residual solids were tested by XRPD and the supernatant was tested by HPLC and pH meter. Detailed procedure can be found in Table 15.
# [7] = Hygroscopicity evaluation by DVS test; format: physicochemical
# Description: Hygroscopicity of Freebase Type A was evaluated by DVS test. […] For the minus weight change observed in the desorption curve, it might be related to sample loss or instrument fluctuation.
# [8] = 25° C./60% RH, 40° C./75% RH for one week and 60° C./sealed for 24 hrs
# human M3 receptor, sequence (P20309 whole entry): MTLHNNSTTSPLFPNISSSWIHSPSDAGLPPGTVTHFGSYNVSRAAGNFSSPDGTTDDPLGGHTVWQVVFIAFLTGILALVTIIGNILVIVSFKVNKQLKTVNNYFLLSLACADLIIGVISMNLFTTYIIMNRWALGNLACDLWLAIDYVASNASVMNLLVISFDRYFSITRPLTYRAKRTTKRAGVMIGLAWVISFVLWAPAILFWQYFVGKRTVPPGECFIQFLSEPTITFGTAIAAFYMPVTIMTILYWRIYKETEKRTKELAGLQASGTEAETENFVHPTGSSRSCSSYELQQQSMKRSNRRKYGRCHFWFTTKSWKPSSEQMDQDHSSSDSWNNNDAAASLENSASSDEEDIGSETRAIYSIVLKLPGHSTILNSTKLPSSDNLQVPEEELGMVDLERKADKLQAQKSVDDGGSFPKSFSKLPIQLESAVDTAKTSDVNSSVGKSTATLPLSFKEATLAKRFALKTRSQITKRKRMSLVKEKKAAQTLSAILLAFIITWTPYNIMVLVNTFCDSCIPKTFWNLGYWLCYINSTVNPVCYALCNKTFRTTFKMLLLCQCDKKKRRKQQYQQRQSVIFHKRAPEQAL
smiles,measurement,setting,value
"COc1cc(C(F)(F)CCC(=O)N2CC3CCC(C2)N3c2ccc(C#N)cn2)ccn1 [Compound, 6-(3-(4,4-difluoro-4-(2-methoxypyridin-4-yl)butanoyl)-3,8-diazabicyclo[3.2.1]octan-8-yl)nicotinonitrile]",IC50,[1],100 to 1000 nM
same,IC50,[2],1000 to 10000 nM
same,IC50,[3],100 to 1000 nM
same,HPLC purity Of initial,"[4]; 25° C./60% RH, 1 w",100.00%
same,HPLC purity after storage,"[4]; 25° C./60% RH, 1 w",100.00 area %
same,form change after storage (XRPD),[4]; [8],no form change was observed
same,purity decrease after storage (HPLC),[4]; [8],no purity decrease was detected
same,HPLC purity Of initial,"[4]; 40° C./75% RH, 1 w",100.00%
same,HPLC purity after storage,"[4]; 40° C./75% RH, 1 w",100.00 area %
same,HPLC purity Of initial,"[4]; 60° C./sealed, 24 hrs",100.00%
same,HPLC purity after storage,"[4]; 60° C./sealed, 24 hrs",100.00 area %
same,Form change,"[4]; 25° C./60% RH, 1 w",No
same,Form change,"[4]; 40° C./75% RH, 1 w",No
same,Form change,"[4]; 60° C./sealed, 24 hrs",No
same,IC50,[5],< 10 nM
same,"solubility rank order of media, from high to low","[6]; FaSSIF, FeSSIF, SGF and H2O, 37° C.",SGF>FeSSIF>FaSSIF>H2O
same,form change after rolling in tested media,"[6]; XRPD, tested media, 1, 4, and 24 hrs",no form change was observed
same,solubility,"[6]; pH 1.77, simulated gastric fluid, SGF, 37° C., over 1 hr, 4 hrs and 24 hrs, read-out: solubility in SGF",≤ 150 µg/mL
same,solubility,"[6]; pH 6.95, water, H2O, 37° C., read-out: solubility in H2O",20 µg/mL
same,FC (Form change),"[6]; FaSSIF, 37° C., 1 hr",No
same,FC (Form change),"[6]; FaSSIF, 37° C., 4 hrs",No
same,FC (Form change),"[6]; FaSSIF, 37° C., 24 hrs",No
same,FC (Form change),"[6]; FeSSIF, 37° C., 1 hr",No
same,FC (Form change),"[6]; FeSSIF, 37° C., 4 hrs",No
same,FC (Form change),"[6]; FeSSIF, 37° C., 24 hrs",No
same,FC (Form change),"[6]; H2O, 37° C., 1 hr",No
same,FC (Form change),"[6]; H2O, 37° C., 4 hrs",No
same,FC (Form change),"[6]; H2O, 37° C., 24 hrs",No
same,FC (Form change),"[6]; SGF, 37° C., 1 hr",No
same,FC (Form change),"[6]; SGF, 37° C., 4 hrs",No
same,FC (Form change),"[6]; SGF, 37° C., 24 hrs",No
same,solubility at 1 h,"[6]; simulated gastric fluid, SGF (pH 1.77), 37° C., 1 hr",140 µg/mL
same,solubility at 4 h,"[6]; simulated gastric fluid, SGF (pH 1.77), 37° C., 4 hrs",150 µg/mL
same,solubility at 24 h,"[6]; simulated gastric fluid, SGF (pH 1.77), 37° C., 24 hrs",140 µg/mL
same,solubility at 1 h,"[6]; FaSSIF (pH 6.47), 37° C., 1 hr",30 µg/mL
same,solubility at 4 h,"[6]; FaSSIF (pH 6.47), 37° C., 4 hrs",30 µg/mL
same,solubility at 24 h,"[6]; FaSSIF (pH 6.47), 37° C., 24 hrs",30 µg/mL
same,solubility at 1 h,"[6]; FeSSIF (pH 4.99), 37° C., 1 hr",60 µg/mL
same,solubility at 4 h,"[6]; FeSSIF (pH 4.99), 37° C., 4 hrs",60 µg/mL
same,solubility at 24 h,"[6]; FeSSIF (pH 4.99), 37° C., 24 hrs",60 µg/mL
same,solubility at 1 h,"[6]; water, H2O (pH 6.95), 37° C., 1 hr",20 µg/mL
same,solubility at 4 h,"[6]; water, H2O (pH 6.95), 37° C., 4 hrs",20 µg/mL
same,solubility at 24 h,"[6]; water, H2O (pH 6.95), 37° C., 24 hrs",20 µg/mL
same,water uptake,"[7]; 80% RH/25° C., sorption cycle from 0% RH to 95% RH",0.01%
same,hygroscopicity,[7]; DVS test,non-hygroscopic
same,form change after the DVS test,[7]; XRPD,no form change was observed
